Assay results: ChEMBL document CHEMBL2346512, “Inhibitory effect of 4,4'-dihydroxy-α-truxillic acid derivatives on NO production in lipopolysaccharide-induced RAW 264.7 macrophages and exploration of structure-activity relationships” (Bioorg Med Chem Lett, 2013)

What was measured:
RAW264.7 [1] = test: Inhibition of LPS-induced NO production in mouse RAW264.7 cells pretreated for 20 mins before LPS challenge measured after 18 hrs post LPS challenge by spectrophotometry; assay type: functional, cell-based
RAW264.7 [2] = test: Inhibition of LPS-induced NO production in mouse RAW264.7 cells at 25 uM pretreated for 20 mins before LPS challenge measured after 18 hrs post LPS challenge by spectrophotometry; assay type: functional
[3] = Cytotoxicity against mouse RAW264.7 cells assessed as cell viability at 25 uM after 18 hrs by CCK-8 assay; assay type: cell-based; details: read-out: Activity
RAW264.7 [4] = test: Cytotoxicity against mouse RAW264.7 cells assessed as cell viability after 18 hrs by CCK-8 assay; assay type: cell-based; details: RAW264.7, 18 h
RAW264.7 [5] = test: Inhibition of LPS-induced NO production in mouse RAW264.7 cells at 50 uM pretreated for 20 mins before LPS challenge measured after 18 hrs post LPS challenge by spectrophotometry; assay type: functional
RAW264.7 [6] = test: Inhibition of LPS-induced NO production in mouse RAW264.7 cells at 100 uM pretreated for 20 mins before LPS challenge measured after 18 hrs post LPS challenge by spectrophotometry; assay type: functional
RAW264.7 [7] = test: Inhibition of LPS-induced NO production in mouse RAW264.7 cells at 12.5 uM pretreated for 20 mins before LPS challenge measured after 18 hrs post LPS challenge by spectrophotometry; assay type: functional
RAW264.7 [8] = test: Cytotoxicity against mouse RAW264.7 cells assessed as cell viability up to 50 uM after 18 hrs by CCK-8 assay; assay type: cell-based; details: raw264.7, 18 h

Structure (SMILES) | inhibition at 25 µM (RAW264.7 [2]) | viability at 18 h, 25 µM [3] | also measured
O=C(OC(C(F)(F)F)C(F)(F)F)[C@H]1[C@H](c2ccc(O)cc2)[C@H](C(=O)OC(C(F)(F)F)C(F)(F)F)[C@H]1c1ccc(O)cc1 | 55% | 32.6% | IC50 (RAW264.7 [1]): 22.6 µM; IC50 (RAW264.7 [4]): 17.6 µM
CC(C)=CCC/C(C)=C\COC(=O)[C@H]1[C@H](c2ccc(O)cc2)[C@H](C(=O)OC/C=C(/C)CCC=C(C)C)[C@H]1c1ccc(O)cc1 | 42.6% | 56% | –
C#CCOCCOC(=O)[C@H]1[C@H](c2ccc(O)cc2)[C@H](C(=O)OCCOCC#C)[C@H]1c1ccc(O)cc1 | 13.5% | 100% | –
N=C(N)NN [PIMAGEDINE] | 56% | – | IC50 (RAW264.7 [1]): 18.7 µM; inhibition at 50 µM (RAW264.7 [5]): 71%
O=C(OCC1CCCCC1)[C@H]1[C@H](c2ccc(O)cc2)[C@H](C(=O)OCC2CCCCC2)[C@H]1c1ccc(O)cc1 | 46.9% | 37% | IC50 (RAW264.7 [1]): 29.1 µM; IC50 (RAW264.7 [4]): 17.9 µM
O=C(OCC12CC3CC(CC(C3)C1)C2)[C@H]1[C@H](c2ccc(O)cc2)[C@H](C(=O)OCC23CC4CC(CC(C4)C2)C3)[C@H]1c1ccc(O)cc1 | 27.8% | 98% | –
COCCOCCOC(=O)[C@H]1[C@H](c2ccc(O)cc2)[C@H](C(=O)OCCOCCOC)[C@H]1c1ccc(O)cc1 | 21.9% | 100% | –
CC(C)(C)C1CCC(OC(=O)[C@H]2[C@H](c3ccc(O)cc3)[C@H](C(=O)OC3CCC(C(C)(C)C)CC3)[C@H]2c2ccc(O)cc2)CC1 (stereo not given in full) | 0% | 100% | –
O=C(O)[C@H]1[C@H](c2ccc(O)cc2)[C@H](C(=O)O)[C@H]1c1ccc(O)cc1 | 5.5% | 100% | –
O=C(O)/C=C/c1ccc(O)cc1 [COUMARIC ACID] | 0% | – | inhibition at 100 µM (RAW264.7 [6]): 13.2%; inhibition at 12.5 µM (RAW264.7 [7]): 0%; inhibition at 50 µM (RAW264.7 [5]): 6.5%
O=C(OC1CCOCC1)[C@H]1[C@H](c2ccc(O)cc2)[C@H](C(=O)OC2CCOCC2)[C@H]1c1ccc(O)cc1 | 18% | 100% | –
CCCOCCOC(=O)[C@H]1[C@H](c2ccc(O)cc2)[C@H](C(=O)OCCOCCC)[C@H]1c1ccc(O)cc1 | 23.6% | 100% | –
CC(C)OCCOC(=O)[C@H]1[C@H](c2ccc(O)cc2)[C@H](C(=O)OCCOC(C)C)[C@H]1c1ccc(O)cc1 | 22% | 100% | –
COCCOCCOCCOC(=O)[C@H]1[C@H](c2ccc(O)cc2)[C@H](C(=O)OCCOCCOCCOC)[C@H]1c1ccc(O)cc1 | 11.9% | 100% | –
CC(C)=CCC/C(C)=C/COC(=O)[C@H]1[C@H](c2ccc(O)cc2)[C@H](C(=O)OC/C=C(\C)CCC=C(C)C)[C@H]1c1ccc(O)cc1 | 33.9% | 80% | –
C#CCCOC(=O)[C@H]1[C@H](c2ccc(O)cc2)[C@H](C(=O)OCCC#C)[C@H]1c1ccc(O)cc1 | 28.3% | 100% | –
CCC[C@H]1CC[C@H]([C@H]2CC[C@@H](OC(=O)[C@H]3[C@H](c4ccc(O)cc4)[C@H](C(=O)O[C@H]4CC[C@@H]([C@H]5CC[C@H](CCC)CC5)CC4)[C@H]3c3ccc(O)cc3)CC2)CC1 | 0% | 100% | –
O=C(OC1CCCCCC1)[C@H]1[C@H](c2ccc(O)cc2)[C@H](C(=O)OC2CCCCCC2)[C@H]1c1ccc(O)cc1 | 16% | 100% | –
C=C(C)COC(=O)[C@H]1[C@H](c2ccc(O)cc2)[C@H](C(=O)OCC(=C)C)[C@H]1c1ccc(O)cc1 | 27.9% | 100% | –

Structure (SMILES) | inhibition at 25 µM (RAW264.7 [2]) | viability at 18 h, 25 µM [3] | also measured
CSCCOC(=O)[C@H]1[C@H](c2ccc(O)cc2)[C@H](C(=O)OCCSC)[C@H]1c1ccc(O)cc1 | 24.4% | 100% | –
CCC[C@H]1CC[C@H]([C@H]2CC[C@H](OC(=O)[C@H]3[C@H](c4ccc(O)cc4)[C@H](C(=O)O[C@H]4CC[C@H]([C@H]5CC[C@H](CCC)CC5)CC4)[C@H]3c3ccc(O)cc3)CC2)CC1 | 0% | 100% | –
O=C(OCC(F)(F)F)[C@H]1[C@H](c2ccc(O)cc2)[C@H](C(=O)OCC(F)(F)F)[C@H]1c1ccc(O)cc1 | 65.3% | 78% | IC50 (RAW264.7 [1]): 20.8 µM; IC50 (RAW264.7 [4]): 38.5 µM
CC(C)[C@@H]1CC[C@@H](C)C[C@H]1OC(=O)[C@H]1[C@H](c2ccc(O)cc2)[C@H](C(=O)O[C@@H]2C[C@H](C)CC[C@H]2C(C)C)[C@H]1c1ccc(O)cc1 | 72% | 98% | IC50 (RAW264.7 [1]): 17.5 µM; Activity (RAW264.7 [8]): Non-toxic; IC50 (RAW264.7 [4]): 60.3 µM
CCOCCOCCOCCOC(=O)[C@H]1[C@H](c2ccc(O)cc2)[C@H](C(=O)OCCOCCOCCOCC)[C@H]1c1ccc(O)cc1 | 15.7% | 100% | –
CCC/C=C/COC(=O)[C@H]1[C@H](c2ccc(O)cc2)[C@H](C(=O)OC/C=C/CCC)[C@H]1c1ccc(O)cc1 | 72.3% | 40% | IC50 (RAW264.7 [1]): 17.6 µM; IC50 (RAW264.7 [4]): 19.3 µM
CC(C)[C@H]1CC[C@H](C)C[C@@H]1OC(=O)[C@H]1[C@H](c2ccc(O)cc2)[C@H](C(=O)O[C@H]2C[C@@H](C)CC[C@@H]2C(C)C)[C@H]1c1ccc(O)cc1 | 17.4% | 90% | –
O=C(OCC1CC1)[C@H]1[C@H](c2ccc(O)cc2)[C@H](C(=O)OCC2CC2)[C@H]1c1ccc(O)cc1 | 33.9% | 95% | –
CCCCOCCOC(=O)[C@H]1[C@H](c2ccc(O)cc2)[C@H](C(=O)OCCOCCCC)[C@H]1c1ccc(O)cc1 | 45.8% | 95% | IC50 (RAW264.7 [1]): 32.6 µM; IC50 (RAW264.7 [4]): 44.5 µM
O=C(OCC1CCCO1)[C@H]1[C@H](c2ccc(O)cc2)[C@H](C(=O)OCC2CCCO2)[C@H]1c1ccc(O)cc1 (stereo not given in full) | 10.2% | 96% | –
C=C(C)C1CC=C(COC(=O)[C@H]2[C@H](c3ccc(O)cc3)[C@H](C(=O)OCC3=CCC(C(=C)C)CC3)[C@H]2c2ccc(O)cc2)CC1 (stereo not given in full) | 36.1% | 78% | –
O=C(OCC(F)(F)C(F)F)[C@H]1[C@H](c2ccc(O)cc2)[C@H](C(=O)OCC(F)(F)C(F)F)[C@H]1c1ccc(O)cc1 | 15.7% | 100% | –
CC(C)(C)[Si](C)(C)Oc1ccc(/C=C/C(=O)O)cc1 | 0% | – | inhibition at 100 µM (RAW264.7 [6]): 6.5%; inhibition at 12.5 µM (RAW264.7 [7]): 0%; inhibition at 50 µM (RAW264.7 [5]): 2.2%
O=C(OCCI)[C@H]1[C@H](c2ccc(O)cc2)[C@H](C(=O)OCCI)[C@H]1c1ccc(O)cc1 | 49.9% | 98% | –
O=C(OC1CCC1)[C@H]1[C@H](c2ccc(O)cc2)[C@H](C(=O)OC2CCC2)[C@H]1c1ccc(O)cc1 | 55% | 62.6% | IC50 (RAW264.7 [1]): 19.8 µM; IC50 (RAW264.7 [4]): 32.3 µM
O=C(OC1CCCC1)[C@H]1[C@H](c2ccc(O)cc2)[C@H](C(=O)OC2CCCC2)[C@H]1c1ccc(O)cc1 | 62.1% | 58% | IC50 (RAW264.7 [1]): 21.1 µM; IC50 (RAW264.7 [4]): 31.2 µM
O=C(OCCC1CCCCC1)[C@H]1[C@H](c2ccc(O)cc2)[C@H](C(=O)OCCC2CCCCC2)[C@H]1c1ccc(O)cc1 | 19.1% | 100% | –
O=C(OC1CCCCC1)[C@H]1[C@H](c2ccc(O)cc2)[C@H](C(=O)OC2CCCCC2)[C@H]1c1ccc(O)cc1 | 76% | 67.8% | IC50 (RAW264.7 [1]): 16.4 µM; IC50 (RAW264.7 [4]): 33 µM
O=C(OCCF)[C@H]1[C@H](c2ccc(O)cc2)[C@H](C(=O)OCCF)[C@H]1c1ccc(O)cc1 | 13% | 100% | –
